The values below come from patent US7259154B2, “Pyrrolopyrimidines” (Aventis Pharmaceuticals Inc., priority 2001, dated 2007).

As usually defined, the melting point is the temperature, or range, at which the solid turns liquid.

Structures are written as SMILES.

The compound `COc1ccc2c(c1)c(-c1cc3c(OC)ncnc3[nH]1)cn2C` [Example 10, 4-Methoxy-6-(5-methoxy-1-methyl-1H-indol-3-yl)-7H-pyrrolo[2,3-d]pyrimidine] yielded a melting point of 184 °C.
`COc1ccc2[nH]cc(-c3cc4c(OC)ncnc4[nH]3)c2c1` [Example 11, 4-Methoxy-6-(5-methoxy-1H-indol-3-yl)-7H-pyrrolo[2,3-d]pyrimidine] came in with a melting point of over 260 °C.
